Reference: PubChem BioAssay AID1259407 (Chemical Carcinogenesis Research Information System (CCRIS), 2018)
Active and inactive are the calls of the source. How the calls were made is not given here.

System: CCRIS mutagenicity, Ames/micronucleus/aberration tests
Test: CCRIS mutagenicity studies
[1] = Test System: AMES SALMONELLA TYPHIMURIUM, Strain/Indicator: TA98, Metabolic Activation: NONE, Method: PREINCUBATION
[2] = Test System: AMES SALMONELLA TYPHIMURIUM, Strain/Indicator: TA98, Metabolic Activation: NONE, Method: STANDARD PLATE
[3] = Test System: AMES SALMONELLA TYPHIMURIUM, Strain/Indicator: TA100, Metabolic Activation: NONE, Method: PREINCUBATION
[4] = Test System: AMES SALMONELLA TYPHIMURIUM, Strain/Indicator: TA100, Metabolic Activation: NONE, Method: STANDARD PLATE

Measured: mutagenic call

Cc1ccc(C)cc1
inactive: Test System: AMES SALMONELLA TYPHIMURIUM, Strain/Indicator: TA98, Metabolic Activation: HAMSTER, LIVER, S-9, AROCLOR 1254, Method: PREINCUBATION inactive; negative | [1] inactive; negative | [2] inactive; negative | Test System: AMES SALMONELLA TYPHIMURIUM, Strain/Indicator: TA98, Metabolic Activation: RAT, LIVER, S-9, AROCLOR 1254, Method: PREINCUBATION inactive; negative | Test System: AMES SALMONELLA TYPHIMURIUM, Strain/Indicator: TA98, Metabolic Activation: RAT, LIVER, S-9, AROCLOR, Method: STANDARD PLATE inactive; negative | Test System: AMES SALMONELLA TYPHIMURIUM, Strain/Indicator: TA98, Metabolic Activation: RAT, LIVER, S-9, KC 500, Method: PREINCUBATION inactive; negative | Test System: AMES SALMONELLA TYPHIMURIUM, Strain/Indicator: TA100, Metabolic Activation: HAMSTER, LIVER, S-9, AROCLOR 1254, Method: PREINCUBATION inactive; negative | [3] inactive; negative | [4] inactive; negative | Test System: AMES SALMONELLA TYPHIMURIUM, Strain/Indicator: TA100, Metabolic Activation: RAT, LIVER, S-9, AROCLOR 1254, Method: PREINCUBATION inactive; negative | Test System: AMES SALMONELLA TYPHIMURIUM, Strain/Indicator: TA100, Metabolic Activation: RAT, LIVER, S-9, AROCLOR, Method: STANDARD PLATE inactive; negative | Test System: AMES SALMONELLA TYPHIMURIUM, Strain/Indicator: TA100, Metabolic Activation: RAT, LIVER, S-9, KC 500, Method: PREINCUBATION inactive; negative | Test System: AMES SALMONELLA TYPHIMURIUM, Strain/Indicator: TA1535, Metabolic Activation: HAMSTER, LIVER, S-9, AROCLOR 1254, Method: PREINCUBATION inactive; negative | Test System: AMES SALMONELLA TYPHIMURIUM, Strain/Indicator: TA1535, Metabolic Activation: NONE, Method: PREINCUBATION inactive; negative | Test System: AMES SALMONELLA TYPHIMURIUM, Strain/Indicator: TA1535, Metabolic Activation: RAT, LIVER, S-9, AROCLOR 1254, Method: PREINCUBATION inactive; negative | Test System: AMES SALMONELLA TYPHIMURIUM, Strain/Indicator: TA1535, Metabolic Activation: RAT, LIVER, S-9, KC 500, Method: PREINCUBATION inactive; negative | Test System: AMES SALMONELLA TYPHIMURIUM, Strain/Indicator: TA1537, Metabolic Activation: HAMSTER, LIVER, S-9, AROCLOR 1254, Method: PREINCUBATION inactive; negative | Test System: AMES SALMONELLA TYPHIMURIUM, Strain/Indicator: TA1537, Metabolic Activation: NONE, Method: PREINCUBATION inactive; negative | Test System: AMES SALMONELLA TYPHIMURIUM, Strain/Indicator: TA1537, Metabolic Activation: RAT, LIVER, S-9, AROCLOR 1254, Method: PREINCUBATION inactive; negative | Test System: AMES SALMONELLA TYPHIMURIUM, Strain/Indicator: TA1537, Metabolic Activation: RAT, LIVER, S-9, KC 500, Method: PREINCUBATION inactive; negative | Test System: AMES SALMONELLA TYPHIMURIUM, Strain/Indicator: TA1538, Metabolic Activation: NONE, Method: PREINCUBATION inactive; negative | Test System: AMES SALMONELLA TYPHIMURIUM, Strain/Indicator: TA1538, Metabolic Activation: RAT, LIVER, S-9, KC 500, Method: PREINCUBATION inactive; negative | Test System: AMES SALMONELLA TYPHIMURIUM, Strain/Indicator: UTH8413, Metabolic Activation: NONE, Method: STANDARD PLATE inactive; negative | Test System: AMES SALMONELLA TYPHIMURIUM, Strain/Indicator: UTH8413, Metabolic Activation: RAT, LIVER, S-9, AROCLOR, Method: STANDARD PLATE inactive; negative | Test System: AMES SALMONELLA TYPHIMURIUM, Strain/Indicator: UTH8414, Metabolic Activation: NONE, Method: STANDARD PLATE inactive; negative | Test System: AMES SALMONELLA TYPHIMURIUM, Strain/Indicator: UTH8414, Metabolic Activation: RAT, LIVER, S-9, AROCLOR, Method: STANDARD PLATE inactive; negative | Test System: E. COLI, Strain/Indicator: WP2 UVRA, Metabolic Activation: NONE, Method: PREINCUBATION inactive; negative | Test System: E. COLI, Strain/Indicator: WP2 UVRA, Metabolic Activation: RAT, LIVER, S-9, KC 500, Method: PREINCUBATION inactive; negative

CCCCN(N=O)C(=O)OCC
active: Test System: AMES SALMONELLA TYPHIMURIUM, Strain/Indicator: TA98, Metabolic Activation: RAT, LIVER, S-9, KC500 OR PHENOBARBITAL, Method: LIQUID SUSPENSION active; positive | Test System: AMES SALMONELLA TYPHIMURIUM, Strain/Indicator: TA100, Metabolic Activation: RAT, LIVER, S-9, KC500 OR PHENOBARBITAL, Method: LIQUID SUSPENSION active; positive

CC(=O)O[C@H]1[C@H](OC23C=C(C)C4(CC4)C(C)(O)C2C(=O)C(C)(C)C3)O[C@H](CO)[C@@H](OC(=O)/C=C/c2ccc(O)cc2)[C@@H]1O (some centres not stated)
active: [1] active; positive | [3] active; positive

Oc1ccc2cc(SSc3ccc4cc(O)ccc4c3)ccc2c1
inactive: Test System: AMES SALMONELLA TYPHIMURIUM, Strain/Indicator: TA97, Metabolic Activation: HAMSTER, LIVER, S-9, AROCLOR 1254 (10 OR 30%), Method: PREINCUBATION inactive; negative | Test System: AMES SALMONELLA TYPHIMURIUM, Strain/Indicator: TA97, Metabolic Activation: NONE, Method: PREINCUBATION inactive; negative | Test System: AMES SALMONELLA TYPHIMURIUM, Strain/Indicator: TA97, Metabolic Activation: RAT, LIVER, S-9, AROCLOR 1254 (10 OR 30%), Method: PREINCUBATION inactive; negative | Test System: AMES SALMONELLA TYPHIMURIUM, Strain/Indicator: TA98, Metabolic Activation: HAMSTER, LIVER, S-9, AROCLOR 1254 (10 OR 30%), Method: PREINCUBATION inactive; negative | [1] inactive; negative | Test System: AMES SALMONELLA TYPHIMURIUM, Strain/Indicator: TA98, Metabolic Activation: RAT, LIVER, S-9, AROCLOR 1254 (5 OR 30%), Method: PREINCUBATION inactive; negative | Test System: AMES SALMONELLA TYPHIMURIUM, Strain/Indicator: TA98, Metabolic Activation: RAT, LIVER, S-9, AROCLOR 1254 (10%), Method: PREINCUBATION inactive; negative | Test System: AMES SALMONELLA TYPHIMURIUM, Strain/Indicator: TA100, Metabolic Activation: HAMSTER, LIVER, S-9, AROCLOR 1254 (10 OR 30%), Method: PREINCUBATION inactive; negative | [3] inactive; negative | Test System: AMES SALMONELLA TYPHIMURIUM, Strain/Indicator: TA100, Metabolic Activation: RAT, LIVER, S-9, AROCLOR 1254 (5 OR 30%), Method: PREINCUBATION inactive; negative | Test System: AMES SALMONELLA TYPHIMURIUM, Strain/Indicator: TA100, Metabolic Activation: RAT, LIVER, S-9, AROCLOR 1254 (10%), Method: PREINCUBATION inactive; negative | Test System: AMES SALMONELLA TYPHIMURIUM, Strain/Indicator: TA102, Metabolic Activation: HAMSTER, LIVER, S-9, AROCLOR 1254 (10 OR 30%), Method: PREINCUBATION inactive; negative | Test System: AMES SALMONELLA TYPHIMURIUM, Strain/Indicator: TA102, Metabolic Activation: NONE, Method: PREINCUBATION inactive; negative | Test System: AMES SALMONELLA TYPHIMURIUM, Strain/Indicator: TA102, Metabolic Activation: RAT, LIVER, S-9, AROCLOR 1254 (10 OR 30%), Method: PREINCUBATION inactive; negative | Test System: AMES SALMONELLA TYPHIMURIUM, Strain/Indicator: TA1535, Metabolic Activation: RAT, LIVER, S-9, AROCLOR 1254 (5, 10 OR 30%), Method: PREINCUBATION inactive; negative | Test System: AMES SALMONELLA TYPHIMURIUM, Strain/Indicator: TA1538, Metabolic Activation: RAT, LIVER, S-9, AROCLOR 1254 (5, 10 OR 30%), Method: PREINCUBATION inactive; negative

O=C/C(=C(/Cl)C(=O)O)C(Cl)Cl
inactive: Test System: AMES SALMONELLA TYPHIMURIUM, Strain/Indicator: TA97, Metabolic Activation: NONE, Method: STANDARD PLATE inactive; negative | Test System: AMES SALMONELLA TYPHIMURIUM, Strain/Indicator: TA97, Metabolic Activation: RAT, LIVER, S-9, PHENOBARBITAL, Method: STANDARD PLATE inactive; negative | Test System: AMES SALMONELLA TYPHIMURIUM, Strain/Indicator: TA98, Metabolic Activation: RAT, LIVER, S-9, PHENOBARBITAL, Method: STANDARD PLATE inactive; negative | Test System: AMES SALMONELLA TYPHIMURIUM, Strain/Indicator: TA100, Metabolic Activation: RAT, LIVER, S-9, PHENOBARBITAL, Method: STANDARD PLATE inactive; negative
active: [1] active; positive | [2] active; positive | [3] active; positive | [4] active; positive | Test System: AMES SALMONELLA TYPHIMURIUM, Strain/Indicator: TA104, Metabolic Activation: NONE, Method: PREINCUBATION active; positive
